Consider three compounds from patent US20190192502A1, “Modulation of Transcription Initiation Factor TFIID Subunit 1 (TAF1) for Treating Leukemia” (UNIVERSITY OF MIAMI, priority 2017, published 2019).

One experiment relates to K562 cells. As to the kind of experiment: Cell growth, CellTiter-Glow luminescent cell viability assay, K562 cells. Type of experiment: cell-based. Particulars: 3 days of treatment. As to the method: (§1) FIGS. 8A-8F. The effect of TAF1 bromodomain inhibitor Bay-364 on the growth of Kasumi-1 cells, K562 cells and CD34+ cells. (FIGS. 8A-8C) The growth of Kasumi-1 cells, CD34+ cells and K562 cells in the presence or absence of different concentrations of bromodomain inhibitors Bay-364, Bay-299 or JQ-1. The cell growth was measured by CellTiter-Glow luminescent cell viability assay after 3 days of treatment with the inhibitors. Each treatment was in triplicate and shown as average±SD. (FIG. 8D) IC50s (μM) of inhibitors on Kasumi-1, CD34+ and K562 cellsKasumi-1 cells, CD34+ cells and K562 cells were treated with different concentrations of Bay-364, Bay-299 and JQ-1 for three days and cell growth was measured by CellTiter-Glow luminescent cell viability assay. Each treatment was in triplicate and IC50s were calculated using GraphPad Prism. […] RNA was extracted from Kasumi-1 cells treated with or without Bay-364 for 72 hours. mRNA levels of individual genes were standardized by 18S rRNA level. (FIG. 8F) TAF1 working model: Under normal conditions, the acetylation of K43 on AE by p300 is recognized by the bromodomains of TAF1 and TAF1 enhances the binding of AE to chromatin. Then transcription is activated. In absence of TAF1, the binding affinity of AE with chromatin is abrogated, and transcription is blocked. […]

The subject of another experiment is Kasumi-1 cells. As to the kind of experiment: Cell growth, CellTiter-Glow luminescent cell viability assay, Kasumi-1 cells. Type of experiment: cell-based, human. The settings on record: for growth of Kasumi-1 cells: 3 days of treatment. As to the method: FIGS. 8A-8F. The effect of TAF1 bromodomain inhibitor Bay-364 on the growth of Kasumi-1 cells, K562 cells and CD34+ cells. (FIGS. 8A-8C) The growth of Kasumi-1 cells, CD34+ cells and K562 cells in the presence or absence of different concentrations of bromodomain inhibitors Bay-364, Bay-299 or JQ-1. The cell growth was measured by CellTiter-Glow luminescent cell viability assay after 3 days of treatment with the inhibitors. Each treatment was in triplicate and shown as average±SD. (FIG. 8D) IC50s (μM) of inhibitors on Kasumi-1, CD34+ and K562 cellsKasumi-1 cells, CD34+ cells and K562 cells were treated with different concentrations of Bay-364, Bay-299 and JQ-1 for three days and cell growth was measured by CellTiter-Glow luminescent cell viability assay. Each treatment was in triplicate and IC50s were calculated using GraphPad Prism. […] RNA was extracted from Kasumi-1 cells treated with or without Bay-364 for 72 hours. mRNA levels of individual genes were standardized by 18S rRNA level. (FIG. 8F) TAF1 working model: Under normal conditions, the acetylation of K43 on AE by p300 is recognized by the bromodomains of TAF1 and TAF1 enhances the binding of AE to chromatin. Then transcription is activated. In absence of TAF1, the binding affinity of AE with chromatin is abrogated, and transcription is blocked.
Kasumi-1 cells were grown in RPMI 1640 supplemented with 20% fetal bovine serum, SKNO-1 cells were grown in RPMI 1640 with 10% fetal bovine serum and 10 ng/ml GM-CSF. K562 cells were grown in IMDM with 10% fetal bovine serum.
Bay-364 (also Bay-299N) is a commercially available small molecule inhibitor of the second bromodomain in TAF1. Given the essential role of TAF1 in the proliferation of AE expressing cells, the effect of Bay-364 on the growth of Kasumi-1, K562 and CD34+ cells was examined. […] JQ-1 inhibits the bromodomains of several BET family proteins including BRD2, BRD3, BRD4 and BRDT.
For orientation: In ATP-based viability assays light output follows the ATP content of the culture.

Another experiment deals with CD34+ cells. Description: Cell growth, CellTiter-Glow luminescent cell viability assay, CD34+ cells. Type of experiment: cell-based, human. Particulars: 3 days of treatment. As to the method: as §1, with “level.” for “level. (FIG. 8F) TAF1 working model: Under normal conditions, the acetylation of K43 on AE by p300 is recognized by the bromodomains of TAF1 and TAF1 enhances the binding of AE to chromatin. Then transcription is activated. In absence of TAF1, the binding affinity of AE with chromatin is abrogated, and transcription is blocked.”
Human cord blood was purchased from the New York Blood Center. […] Seven days after the initial plating, colonies were counted and then all the cells were collected for replating weekly with a density of 3000 cells per well for continuous 4 weeks. Cobblestone area forming cell assays (CAFC) were performed as described previously 25, the numbers of total cobblestone area were counted after 5 weeks. […]

The test system of experiment [1] is AE upregulated genes (ID1, CARM1, MYC). As to the kind of experiment: Realtime PCR of AE upregulated genes in Kasumi-1 cells. The settings on record: 72 hours, standardized by 18S rRNA level. In kind it is cell-based, human. As for the experimental part: as §1, with “activated.” for “activated. In absence of TAF1, the binding affinity of AE with chromatin is abrogated, and transcription is blocked.”
RNA was extracted using RNeasy mini kit (Qiagen) and cDNA was generated by QuantiTect Rev. […]

`Cc1cc2c(cc1N1C(=O)c3cccc4c(CCCO)ccc(c34)C1=O)n(C)c(=O)n2C` [Bay-299, 6-(3-Hydroxypropyl)-2-(1,3,6-trimethyl-2-oxo-2,3-dihydro-1Hbenzimidazol-5-yl)-1H-benzo[de]isoquinoline-1,3(2H)-dione]: in the experiment with K562 cells, the “growth of K562 cells” value is “suppresses the growth”. Also, the “growth of Kasumi-1 cells” value in the experiment with Kasumi-1 cells was “suppresses the growth”. The “growth of CD34+ cells” value with CD34+ cells was “suppresses the growth”.

On to `Cn1c(=O)[nH]c2cc(N3C(=O)c4cccc5c(CCCO)ccc(c45)C3=O)ccc21` [Bay-364], for which the “growth of K562 cells” value in the experiment on K562 cells is given as “little influence on the growth”. In the experiment with Kasumi-1 cells, the “growth of Kasumi-1 cells” value is “more sensitive to Bay-364 treatment than CD34+ cells”. The “mRNA levels of ID1, CARM1, MYC” value in experiment [1] is reported as “repressed the expression of these genes”. Besides, the “growth of CD34+ cells” value in the experiment with CD34+ cells is listed as “much less toxicity on HSPCs”.

Regarding `Cc1sc2c(c1C)C(c1ccc(Cl)cc1)=N[C@@H](CC(=O)OC(C)(C)C)c1nnc(C)n1-2` [JQ-1], the “growth of Kasumi-1 cells” value in the experiment with Kasumi-1 cells is given as “more potent than Bay-364”. The “IC50s on Kasumi-1 cells compared with CD34+ cells” value with Kasumi-1 cells (three days, GraphPad Prism) is reported as “quite similar”.
